Converted amounts (≈) assume the structure as drawn.

The results in this text go back to PMC6222614, “Disubstituted 4-Chloro-3-nitrophenylthiourea Derivatives: Antimicrobial and Cytotoxic Studies” (Molecules : A Journal of Synthetic Chemistry and Natural …, 2018).

A short description of series [1]: Cytotoxicity against mock-infected MT-4 cells (MTT). It is filed as cell-based, human. Conditions: human, concentration reducing viability of mock-infected MT-4 cells by 50%. The method, then: (§1) Cell line supporting the multiplication of Human Immunodeficiency Virus type-1 (HIV-1) was the CD4+ human T-cells, derived from human hematological tumors, containing an integrated HTLV-1 genome (MT-4). Cells were purchased from American Type Culture Collection (ATCC). Human Immunodeficiency Virus type-1 (HIV-1) IIIB laboratory strain was obtained from the supernatant of the persistently infected H9/IIIB cells (NIH 1983).
Exponentially growing MT-4 cells were seeded at an initial density of 1 × 10^5 cells/mL in 96-well plates in RPMI-1640 medium, supplemented with 10% fetal bovine serum (FBS), 100 units/mL penicillin G and 100 μg/mL streptomycin. Cell cultures were then incubated at 37 °C in a humidified, 5% CO2 atmosphere, in the absence or presence of serial dilutions of tested compounds. Cell viability was determined after 96 h at 37 °C by the 3-(4,5-dimethylthiazol-2-yl)-2,5-diphenyl-tetrazolium bromide (MTT) method.

For series [2], the system named is S. epidermidis MRSE 409/11. As to the kind of experiment: MIC, hospital methicillin-resistant strain. It is filed as cell-based. To be noted: Staphylococcus epidermidis. The method, then:
(§2) The antimicrobial activity of the compounds was tested on Gram-positive bacteria (Staphylococcus aureus NCTC 4163, Staphylococcus aureus ATCC 25923, Staphylococcus aureus ATCC 6538, Staphylococcus aureus ATCC 29213, Staphylococcus epidermidis ATCC 12228, Staphylococcus epidermidis ATCC 35984, Enterococcus faecalis ATCC 29212, Bacillus subtilis ATCC 6633, Bacillus cereus ATCC 11778, Micrococcus luteus ATCC 9341, Micrococcus luteus ATCC 10240); Gram-negative rods (Escherichia coli ATCC 10538, Escherichia coli ATCC 25922, Escherichia coli NCTC 8196, Proteus vulgaris NCTC 4635, Pseudomonas aeruginosa ATCC 15442, Pseudomonas aeruginosa NCTC 6749, Pseudomonas aeruginosa ATCC 27863, Bordetella bronchiseptica ATCC 4617) and yeasts (Candida albicans ATCC 10231, Candida albicans ATCC 90028, Candida parapsilosis ATCC 22019). Other microorganisms used were obtained from the collection of the Department of Pharmaceutical Microbiology, Medical University of Warsaw, Poland.
(§3) Antibacterial activity was examined by the disc-diffusion method under standard conditions using Mueller-Hinton II agar medium (Becton Dickinson) according to CLSI (previously NCCLS) guidelines. Antifungal activities were assessed using Mueller-Hinton agar + 2% glucose and 0.5 µg/mL Methylene Blue Dye Medium. Sterile filter paper discs (9 mm diameter, Whatman No 3 chromatography paper) were dripped with tested compound solutions (in DMSO) to load 400 μg of a given compound per disc. Dry discs were placed on the surface of appropriate agar medium. The results (diameter of the growth inhibition zone) were read after 18 h of incubation at 35 °C. Minimal Inhibitory Concentration (MIC) was tested by the twofold serial microdilution method (in 96-well microtiter plates) using Mueller-Hinton Broth medium (Beckton Dickinson) for bacteria or RPMI-1640 medium for Candida species according to CLSI guidelines. The stock solution of tested agent was prepared in DMSO and diluted in sterile water. Concentrations of tested agents ranged from 0.125 to 512 µg/mL. The final inoculum of all studied microorganisms was 10^5 CFU/ mL^−1 (colony forming units per mL). Minimal inhibitory concentrations (the lowest concentration of a tested agent that prevents visible growth of a microorganism) were read after 18 h (bacteria) or 24 h (yeasts) of incubation at 35 °C.

Series [3] concerns S. epidermidis MRSE 413/11. As to the kind of experiment: MIC, hospital methicillin-resistant strain. It is filed as cell-based. To be noted: Staphylococcus epidermidis. The method, then: as §2, §3
The subject of series [4] is S. epidermidis MRSE 403/11. The series can be described thus: MIC, hospital methicillin-resistant strain. It is filed as cell-based. Conditions: Staphylococcus epidermidis. Here is the method:
as §2, §3

In series [5] the test system is S. epidermidis MRSE 412/11. As to the kind of experiment: MIC, hospital methicillin-resistant strain. It is filed as cell-based. To be noted: Staphylococcus epidermidis. The method, then:
as §2, §3

Series [6] relates to S. epidermidis MRSE 422/11. The series can be described thus: MIC, hospital methicillin-resistant strain. It is filed as cell-based. To be noted: Staphylococcus epidermidis. Here is the method:
as §2, §3

Series [7] has as its system S. epidermidis MRSE 411/11. As to the kind of experiment: MIC, hospital methicillin-resistant strain. It is filed as cell-based. To be noted: Staphylococcus epidermidis. The method, then:
as §2, §3

Series [8] relates to S. epidermidis MRSE 406/11. As to the kind of experiment: MIC, hospital methicillin-resistant strain. It is filed as cell-based. Conditions: Staphylococcus epidermidis. Here is the method: as §2, §3
The test system of series [9] is S. epidermidis MRSE 407/11. The series can be described thus: MIC, hospital methicillin-resistant strain. Conditions: Staphylococcus epidermidis. It is filed as cell-based. Here is the method:
as §2, §3

Series [10] concerns S. epidermidis MRSE 404/11. As to the kind of experiment: MIC, hospital methicillin-resistant strain. It is filed as cell-based. Conditions: Staphylococcus epidermidis. Here is the method: as §2, §3
Series [11] concerns S. epidermidis MRSE 405/11. The series can be described thus: MIC, hospital methicillin-resistant strain. It is filed as cell-based. Conditions: Staphylococcus epidermidis. The method, then: as §2, §3
Series [12] concerns HIV-1 IIIB. The series can be described thus: Anti-HIV-1 activity: protection of MT-4 cells from virus-induced cytopathogenicity (MTT). It is filed as cell-based, Human Immunodeficiency Virus type-1. Conditions: Human immunodeficiency virus 1, IIIB, MT4, 96 h; 50% protection of MT-4 cells from HIV-1 induced cytopathogenicity, MTT, 4-day incubation; read-out: HIV-1IIIB EC50.
Excerpt: as §1
The activity of compounds against HIV-1 was based on inhibition of virus-induced cytopathogenicity in MT-4 cell acutely infected with a multiplicity of infection (m.o.i.) of 0.01. Briefly, 50 μL of RPMI containing 1 × 10^4 MT-4 cells were added to each well of flat-bottom microtiter trays, containing 50 μL of RPMI without or with serial dilutions of test compounds. Then, 20 μL of a HIV-1 suspension containing 100 CCID50 were added. After a 4-day incubation at 37 °C, cell viability was determined by the MTT method.

For series [13], the system named is B. cereus ATCC 11778. As to the kind of experiment: MIC, twofold serial microdilution. It is filed as cell-based. Conditions: Bacillus cereus, ATCC11778; standard strain, 18 h, 35 °C. The method, then: as §2, §3
On the technique in general: In broth dilution the organism is exposed to a series of concentrations in liquid medium.

Series [14] concerns S. aureus ATCC 6538. The series can be described thus: MIC, twofold serial microdilution. It is filed as cell-based. Conditions: Staphylococcus aureus, ATCC6538; standard strain, 18 h, 35 °C. Here is the method:
as §2, §3

For series [15], the system named is M. luteus ATCC 10240. As to the kind of experiment: MIC, twofold serial microdilution. It is filed as cell-based. Conditions: Micrococcus luteus, ATCC10240; standard strain, 18 h, 35 °C. The method, then:
as §2, §3

Series [16] concerns S. aureus ATCC 25923. As to the kind of experiment: MIC, twofold serial microdilution. Conditions: Staphylococcus aureus, ATCC25923; standard strain, 18 h, 35 °C. It is filed as cell-based. Here is the method: as §2, §3
Series [17] concerns E. faecalis ATCC 29212. The series can be described thus: MIC, twofold serial microdilution. To be noted: Enterococcus faecalis, ATCC29212; standard strain, 18 h, 35 °C. It is filed as cell-based. The method, then:
as §2, §3

The subject of series [18] is S. epidermidis ATCC 35984. The series can be described thus: MIC, twofold serial microdilution. It is filed as cell-based. To be noted: Staphylococcus epidermidis, ATCC35984; standard strain, 18 h, 35 °C. Here is the method: as §2, §3
In series [19] the test system is M. luteus ATCC 9341. As to the kind of experiment: MIC, twofold serial microdilution. Conditions: Micrococcus luteus, ATCC9341; standard strain, 18 h, 35 °C. It is filed as cell-based. Here is the method:
as §2, §3

In series [20] the test system is B. subtilis ATCC 6633. As to the kind of experiment: MIC, twofold serial microdilution. It is filed as cell-based. To be noted: Bacillus subtilis, ATCC6633; standard strain, 18 h, 35 °C. Here is the method: as §2, §3
In series [21] the test system is S. epidermidis ATCC 12228. The series can be described thus: MIC, twofold serial microdilution. It is filed as cell-based. Conditions: Staphylococcus epidermidis, ATCC12228; standard strain, 18 h, 35 °C. The method, then: as §2, §3
For series [22], the system named is S. aureus NCTC 4163. The series can be described thus: MIC, twofold serial microdilution. It is filed as cell-based. To be noted: Staphylococcus aureus, NCTC4163; standard strain, 18 h, 35 °C. Here is the method: as §2, §3
The test system of series [23] is S. aureus ATCC 29213. As to the kind of experiment: MIC, twofold serial microdilution. It is filed as cell-based. Conditions: Staphylococcus aureus, ATCC29213; standard strain, 18 h, 35 °C. Here is the method: as §2, §3
In series [24] the test system is staphylococci. The series can be described thus: MIC against staphylococci. To be noted: moderate activity. It is filed as cell-based. Here is the method: as §2, §3

`CSCCCNC(=S)Nc1ccc(Cl)c([N+](=O)[O-])c1` [Compound 29, 1-(4-chloro-3-nitrophenyl)-3-[3-(methylsulfanyl)propyl]thiourea] registered a melting point of 102 to 103.5 °C. The 50% cytotoxic concentration (CC50) at 96 h in series [1] was found to be 33.7 µM. Moreover, the minimum inhibitory concentration (MIC) in series [2] was 32 µg/mL (≈ 100 µM). For the same compound, the MIC in series [3] was determined as 32 µg/mL (≈ 100 µM). The compound further returned an MIC in [4] of 32 µg/mL (≈ 100 µM). Moreover, the MIC in series [5] was 32 µg/mL (≈ 100 µM). Inhibition of growth in series [6] (MIC) required 32 µg/mL (≈ 100 µM). The MIC in series [7] turned out to be 32 µg/mL (≈ 100 µM). In series [8], 32 µg/mL (≈ 100 µM) was the least that counted as inhibitory (MIC). This compound also came in with an MIC in series [9] of 32 µg/mL (≈ 100 µM). In addition, the MIC in [10] is 32 µg/mL (≈ 100 µM). Further, the lowest concentration to inhibit growth in series [11] (MIC) was 32 µg/mL (≈ 100 µM). In addition, the EC50 in series [12] is above 33.7 µM. Further, the MIC in [13] was determined as 8 µg/mL (≈ 25 µM). The compound further yielded an MIC in series [14] of 16 µg/mL (≈ 50 µM). Moreover, the MIC in series [15] came out at 32 µg/mL (≈ 100 µM). Further, in series [16], inhibition of growth (MIC) required 16 µg/mL (≈ 50 µM). The compound further gave a minimal inhibitory concentration (MIC) in [17] of 64 µg/mL (≈ 200 µM). The MIC in series [18] is 16 µg/mL (≈ 50 µM). For the same compound, the MIC in [19] is 16 µg/mL (≈ 50 µM). The compound further gave an MIC in series [20] of 16 µg/mL (≈ 50 µM). In series [21], this compound returned an MIC of 16 µg/mL (≈ 50 µM). Besides, the lowest concentration to inhibit growth in [22] (MIC) was 16 µg/mL (≈ 50 µM). In series [23], this compound came in with an MIC of 16 µg/mL (≈ 50 µM). In [24], the “MIC range towards staphylococci” value lay in the range of 8 to 16 µg/mL.

Consider `O=C(O)c1cn(C2CC2)c2cc(N3CCNCC3)c(F)cc2c1=O` [Ciprofloxacin, reference compound], for which the minimum inhibitory concentration (MIC) in [2] was 2 µg/mL (≈ 6.04 µM); in series [3], 32 µg/mL (≈ 96.6 µM); in series [4] it was 16 µg/mL (≈ 48.3 µM); in series [5], 64 µg/mL (≈ 193 µM); in [6], 4 µg/mL (≈ 12.1 µM); in series [7], 4 µg/mL (≈ 12.1 µM). Also, the minimal inhibitory concentration (MIC) in [8] was found to be 0.5 µg/mL (≈ 1.51 µM); in series [9] it was 64 µg/mL (≈ 193 µM); in series [10] it was 64 µg/mL (≈ 193 µM); in series [11], 4 µg/mL (≈ 12.1 µM); in [13] it was 0.25 µg/mL (≈ 0.754 µM); in series [14] it was 0.25 µg/mL (≈ 0.754 µM). Besides, the MIC was 2 µg/mL (≈ 6.04 µM) in series [15]; 0.5 µg/mL (≈ 1.51 µM) in series [16]; 1 µg/mL (≈ 3.02 µM) in series [17]; 0.25 µg/mL (≈ 0.754 µM) in series [18]; 1 µg/mL (≈ 3.02 µM) in [19]; below 0.12 µg/mL in series [20]. Also, the values for the MIC in series [21], in [22] and in [23] were 0.25 µg/mL (≈ 0.754 µM), 0.25 µg/mL (≈ 0.754 µM) and 0.5 µg/mL (≈ 1.51 µM), respectively.

In general, melting point refers to the temperature, or range, at which the solid turns liquid. For orientation: CC50 means the concentration at which the toxic effect on the cells reaches its halfway point. Low readings indicate greater toxicity to the cells, high ones lower toxicity to the cells. The term MIC denotes the lowest concentration that inhibits growth of the organism. What is called EC50 is the concentration at which the effect is half-maximal.
